From patent US10071064B2, “Tincture for infusing flavonoids and methods of use” (Heart Healthy Spirits, LLC, priority 2014, dated 2018)

Experiments:
[1] = Near-saturated concentration of resveratrol in ethanol; assay type: physicochemical; details: 25° C.
Procedure: To deliver a 25 mg dose, 0.60 mL of tincture is required regardless of volume of beverage.

[2] = Free trans-resveratrol in beverages after adding trans-resveratrol powder, 10 micron filtered (HPLC/(+)ESI-MS/MS and HPLC/UV); assay type: physicochemical
From the text: All beverages receiving the powder are thoroughly mixed. […] A few milliliters of each beverage are transferred to amber-colored sample vials. Samples are stored from each beverage in a refrigerator for analysis.

SMILES | concentration of concentrated (near-saturated) tincture [1] | appearance on adding powder to beverage ([2]; 25 mg powder in a serving volume, all beverages) | amount of bioavailable (free) resveratrol ([2]; 25 mg powder in alcoholic beverages (red wine, white wine, beer, spirits), 10 micron filtered) | measurable concentrations of free trans-resveratrol ([2]; 25 mg powder in non-alcoholic beverages (energy drink, sodas, orange juice), 10 micron filtered)
Oc1ccc(/C=C/c2cc(O)cc(O)c2)cc1 [resveratrol, trans-resveratrol] | 42000 µg/mL |  |  | 
Oc1ccc(/C=C/c2cc(O)cc(O)c2)cc1 [trans-resveratrol powder, trans-resveratrol] |  | appears to suspend in solution forming a cloudy layer | below the minimum detection limits of the devices | none of the non-alcoholic beverages (energy drink, sodas, and orange juice) receiving the powder show any measurable concentrations of trans-resveratrol
